Measured values taken from PubChem BioAssay (NCI).
“And” between values parts separate entries of the source, which are not always exact repeats. Equal values may be shown once.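 Cultured in 96-well plates, cells were exposed to test compound for 48 hours across five concentrations. GI50: concentration for 50% inhibition of growth. TGI: total growth inhibition.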

What was measured:
Assay in all cases: inhibition of tumour cell growth, NCI panel, 48 h
786-0 renal = test system: 786-0 renal
A498 renal = test system: A498 renal
BT-549 breast = test system: BT-549 breast
HCT-15 colon = test system: HCT-15 colon
KM12 colon = test system: KM12 colon
MALME-3M melanoma = test system: MALME-3M melanoma
NCI-H23 lung = test system: NCI-H23 lung
SNB-75 CNS = test system: SNB-75 CNS
SW-620 colon = test system: SW-620 colon
UO-31 renal = test system: UO-31 renal

Row | Structure (SMILES) | GI50 (786-0 renal) | TGI (786-0 renal) | GI50 (A498 renal) | TGI (A498 renal) | GI50 (BT-549 breast) | TGI (BT-549 breast) | GI50 (HCT-15 colon) | TGI (HCT-15 colon) | GI50 (KM12 colon) | TGI (KM12 colon) | GI50 (MALME-3M melanoma) | TGI (MALME-3M melanoma) | GI50 (NCI-H23 lung) | TGI (NCI-H23 lung) | GI50 (SNB-75 CNS) | TGI (SNB-75 CNS) | GI50 (SW-620 colon) | TGI (SW-620 colon) | GI50 (UO-31 renal) | TGI (UO-31 renal)
1 | Cc1ccc([N+](=O)[O-])cc1NC(=O)Nc1cccc(F)c1 | 14.1 µM | > 100 µM | 1.61 µM | 9.76 µM | 45.1 µM | > 100 µM | 3.44 µM | > 100 µM | 3.67 µM | 48.7 µM | 4.66 µM | 51.8 µM | 2.61 µM | > 100 µM | 11.6 µM | 37.1 µM | 4.66 µM | > 100 µM | 3.36 µM | 17.6 µM
2 | COc1ccc(-c2cc(-c3cc(Cl)ccc3Cl)nc3n[nH]c(N)c23)cc1 | 19.3 µM | 54.1 µM | 21 µM | 57.5 µM | 38.1 µM | > 100 µM | 11.6 µM | > 100 µM | 8.26 µM | 83.6 µM | 46.8 µM | > 100 µM | 36.9 µM | > 100 µM | 20.9 µM | > 100 µM | 8.16 µM | > 100 µM | 27.9 µM | > 100 µM
3 | NCCNc1c2c(c(NCCN)c3c(CO)c[nH]c13)C(=O)c1ccccc1C2=O | 5.21 µM | > 100 µM | 41.2 µM | > 100 µM | 6.72 µM | 32 µM | > 100 µM | > 100 µM | 17.3 µM | > 100 µM | 8.51 µM | 26.3 µM | 17.2 µM | > 100 µM | 24.3 µM | > 100 µM | 8.7 µM | > 100 µM | 80.8 µM | > 100 µM
4 | CCN1CCN(Cc2ccc(-c3cc4c(N[C@H](C)c5ccccc5)ncnc4[nH]3)cc2)CC1 | 2.02 µM and 1.91 µM | 8.93 µM and 7.74 µM | 0.947 µM and 0.35 µM | 2.82 µM and 2.08 µM | 6.3 µM and > 10 µM | 22.3 µM and > 10 µM | 2.56 µM and 2.39 µM | 17.9 µM and > 10 µM | 3.84 µM and 3.5 µM | 14.4 µM and > 10 µM | 1.92 µM and 1.78 µM | 4.14 µM and 4.02 µM | 7.39 µM and > 10 µM | 33.3 µM and > 10 µM | 1.48 µM and 1.88 µM | 9.56 µM and 8.12 µM | 3.45 µM and 5.46 µM | 19.9 µM and > 10 µM | 0.37 µM and 0.542 µM | 8.95 µM and > 10 µM
5 | CCNC(=O)[C@@H]1CCCN2C(=O)CC[C@H](NC(=O)[C@H](Cc3ccc(OP(=O)(O)O)cc3)NC(C)=O)C(=O)N12 | > 25 µM | > 25 µM | > 25 µM | > 25 µM | > 25 µM | > 25 µM | > 25 µM | > 25 µM | > 25 µM | > 25 µM | > 25 µM | > 25 µM | > 25 µM | > 25 µM | > 25 µM | > 25 µM | > 25 µM | > 25 µM | > 25 µM | > 25 µM
6 | O=C(NC1CCN(Cc2ccccc2)CC1)c1cc(-c2ccncc2)nc2ccc(Cl)cc12 | 6.84 µM | 28.7 µM |  | 3.45 µM | 17.2 µM | 99.9 µM | 10.5 µM | > 48.2 µM | 24.1 µM | > 100 µM | 9.39 µM | 26.9 µM | 43.5 µM | > 100 µM | 2.43 µM | 30.4 µM | 19.8 µM | > 100 µM | 3.12 µM | 33.9 µM
7 | O=C(O)C/C(=C\c1ccco1)C(=O)O |  | > 100 µM |  | > 100 µM |  | > 100 µM |  | > 100 µM |  | > 100 µM |  | > 100 µM |  | > 100 µM |  | > 100 µM |  | > 100 µM |  | > 100 µM
8 | C=CC[n+]1c(/C=C/C=C2\N(C)c3ccccc3C2(C)C)sc2ccc(OC)cc21 | 0.363 µM | 18.8 µM | 0.278 µM | 4.37 µM | 0.149 µM | 2.99 µM | 2.82 µM | 16.4 µM | 0.249 µM | 11.7 µM | 0.188 µM | 0.733 µM | 0.0761 µM | 12.9 µM | 0.283 µM | 14.1 µM | 0.34 µM | 14.3 µM | 1.53 µM | 8.82 µM
9 | FC(F)(F)c1nc(N2CCCC2)ncc1-c1nnnn1-c1ccc(Cl)cc1 | 33.2 µM | > 100 µM | 18.3 µM | 62.7 µM | 31 µM | > 100 µM | 28.5 µM | > 100 µM | 15 µM | 48 µM | 16.9 µM | 42.6 µM | 20 µM | 51.8 µM | 12 µM | 65.3 µM | 30.4 µM | > 100 µM | 16.8 µM | > 100 µM
10 | CC(=O)N[C@@H](Cc1ccc(OP(=O)(O)O)cc1)C(=O)N[C@H]1CCC(=O)N2CCC[C@@H](C(=O)NCc3ccc(Cl)cc3)N2C1=O | > 25 µM | > 25 µM | > 25 µM | > 25 µM | > 25 µM | > 25 µM | > 25 µM | > 25 µM | > 25 µM | > 25 µM | > 25 µM | > 25 µM | > 25 µM | > 25 µM | > 25 µM | > 25 µM | > 25 µM | > 25 µM | > 25 µM | > 25 µM
11 | N#Cc1c(-c2ccccc2)nc(SCC2CO2)nc1N1CCOCC1 (centres undefined) | 4.12 µM | > 46.1 µM | 1.26 µM | 5.42 µM | 5.89 µM | > 94.1 µM | 4.71 µM | > 100 µM | 25.8 µM | > 100 µM | 2.32 µM | > 68.3 µM | 8.51 µM | > 100 µM | 1.91 µM | > 82.6 µM | 28.8 µM | > 100 µM | 5.61 µM | > 100 µM
12 | COc1ccc2[nH]c(=O)c3c4ccccc4cn3c2c1 | 0.553 µM | 1.95 µM | 0.383 µM | 4.83 µM | 7.3 µM | 20.9 µM | 0.31 µM | 1.4 µM | 0.323 µM | 1.65 µM | 0.911 µM | 2.48 µM | 0.639 µM | 6.59 µM | 0.366 µM | 9.47 µM | 0.319 µM | 1.39 µM | 0.689 µM | 4.73 µM
13 | Cc1c2cc[n+](C)cc2c(C)c2c1sc1ccccc12 |  | 2.9 µM |  | 13.6 µM |  | 1.37 µM |  | > 100 µM |  | 2.97 µM |  | 1.92 µM |  | 2.29 µM |  | 0.804 µM |  | 33.1 µM |  | > 90.7 µM
14 | COc1c(C=O)c2c(c(OC)c1OC)-c1ccc(OC)c(=O)cc1[C@@H](NC(C)=O)CC2 |  | > 75.6 µM |  | 14.8 µM |  | > 100 µM |  | > 100 µM |  | 0.632 µM |  | > 100 µM |  | 3.47 µM |  | > 100 µM |  | > 100 µM |  | > 100 µM
